Where a SMILES comes first, the peptide text is derived from it. Bridges are numbered along the chain shown (N, C = ends). Where no end group is shown, it is not given here.

The first assay has as its target T1, CR2-C3d interaction (Homo sapiens, UniProt P20023).
T1 construct: DNA corresponding to residues 1-133 of wild-type CR2 (SCR1-2) was PCR amplified; made in house; host or cells: E. coli (pMAL-P2X)
T1 sequence (P20023 21-153): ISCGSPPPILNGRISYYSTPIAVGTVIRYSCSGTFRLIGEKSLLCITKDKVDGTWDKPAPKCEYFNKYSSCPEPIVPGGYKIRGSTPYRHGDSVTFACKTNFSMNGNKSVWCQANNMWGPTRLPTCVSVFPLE
Kind of assay: Peptide competition ELISA, CR2-C3d (bound C3d, solution phase MBP-CR2). Format: binding.
Settings: not given
Molecule APAHLSSQ [control] registered an IC50 of 700 µM. For the molecule APQALSSQYSRT [C3dp1.1], the IC50 stood at 70 µM. On to APQHLSSQ [C3dp1.3], for which the IC50 came out at 40 µM. Regarding APQHLSSQYSRT [C3dp1], the IC50 turned out to be 100 µM.

Molecule DPKNHVH [C3dcp1.1, DPKNHVH] had an IC50 of 95 µM. With IATANPRHHSTA [C3dp2.3], the IC50 was found to be 160 µM. ISTSNPRAASTA [C3dp2.1] returned an IC50 of 150 µM.

In turn, ISTSNPRH [C3dp2.2] came in with a 50% inhibitory concentration (IC50) of 190 µM. Still for that read-out and setting: to ISTSNPRHHSTA [C3dp2] belongs 450 µM; to TRSYQSSLHQPA [C3dp1.2], 70 µM.

Still in this assay, the particulars now being: peptide raised against CR2-EBV gp350.
As for `CC(C)C[C@@H]1NC(=O)[C@H](CO)NC(=O)CNC(=O)[C@H](CCC(=O)O)NC(=O)[C@H](CO)NC(=O)[C@@H](N)CSSC[C@@H](C(=O)O)NC(=O)CNC(=O)[C@H](CCCCN)NC1=O` [gp350cp1] (H-CSEGSLKGC-OH; disulfide 1-9; N-terminus and C-terminus assumed), the “effect on the CR2-C3d interaction (ligand specificity)” value is listed as “unaffected”.

In another assay the target is T2, CR2-EBV gp350 interaction (Homo sapiens, UniProt P20023).
Experiment: not given
The settings on record: peptides raised against CR2-C3d.
Turning to APQHLSSQYSRT [C3dp1], the “effect on the CR2-EBV gp350 interaction (ligand specificity)” value is “largely unaffected”.

The target of the next assay is T2, CR2-EBV gp350 interaction. Kind of assay: biochemical.
Settings: not given
The molecule `CC(C)C[C@@H]1NC(=O)[C@H](CO)NC(=O)CNC(=O)[C@H](CCC(=O)O)NC(=O)[C@H](CO)NC(=O)[C@@H](N)CSSC[C@@H](C(=O)O)NC(=O)CNC(=O)[C@H](CCCCN)NC1=O` [gp350cp1] (H-CSEGSLKGC-OH; disulfide 1-9; N-terminus and C-terminus assumed) had an IC50 of 150 µM.

(Values after patent US20120108492A1, “LIGAND-SPECIFIC NON-ANTIBODY COMPOUNDS THAT INHIBIT CR2 ACTIVATION AND METHODS OF USE THEREOF” (The Regents of the University of Colorado, priority 2008, published 2012).)
